Four compounds from US4067142A, “Echinatin glycosides and their preparation” (Kabushiki Kaisha Hayashibara Seibutsu Kagaku Kenkyujo, priority 1975, dated 1978) can be followed below.

Values after ≈ are worked out from the molar mass of the structure shown. A value given as a limit tells only on which side of the number the result lay.

Data set [1] can be described thus: water solubility at 15° C. The format is physicochemical. Particulars: for solubility: water.
Data set [2] concerns human lymphoblastoid cells (E.B. -3 cells, Burkitt lymphoma). Kind of data set: inhibiting action on the growth of human lymphoblastoid cells (E.B.-3, Burkitt lymphoma) in suspension culture, cell count. Particulars: 100 μg per ml medium, added on the fourth day of cultivation; R.P.M.I. 1640 + 30% fetal calf serum, 37° C; vs non-added culture. The format is cell-based. As for the experimental part: Human lymphoblastoid cells (E.B. -3 cells, Burkitt lymphoma) were grown in suspension culture and maintained in 2 ml R.P.M.I. 1640 medium (manufactured by Flow Laboratories Inc., U.S.A.) supplemented with 30% fetal calf serum, placed in Petri's dish, diameter 20 mm at a temperature of 37° C.
The numbers of human lymphoblastoid cells were counted according to the method used for counting the numbers of leucocyte with Burke's blood count platelet.

Setting [3] is: 15° C, parts or percentages by weight.

Broadly, the solubility is the dissolved amount per volume that the medium holds. Higher therefore signals much dissolved substance. Turning to `COc1cc(O)ccc1/C=C/C(=O)c1ccc(O)cc1` [echinatin], the “water solubility, in words” value in data set [1] (temperature not stated) was “extremely low water solubility”. In data set [1] (setting [3]), this compound had a solubility of less than 1 µg/mL.

On to `COc1cc(O[C@@H]2O[C@H](CO)[C@@H](O)[C@H](O)[C@H]2O)ccc1/C=C/C(=O)c1ccc(O[C@@H]2O[C@H](CO)[C@@H](O)[C@H](O)[C@H]2O)cc1` [echinatin-4,4'-diglucoside], for which the solubility in data set [1] (setting [3]) is approximately 5000 µg/mL (≈ 8410 µM). Regarding echinatin-4'-glucoside, in data set [1] (setting [3]), the water solubility result is given as “approximately 1%”. Further, in data set [2], the “inhibiting action on the growth of human lymphoblastoid cells” value is “possesses an inhibiting action on the growth of human lymphoblastoid cells”. The compound `COc1cc(O[C@@H]2O[C@H](CO)[C@@H](O)[C@H](O)[C@H]2O)ccc1/C=C/C(=O)c1ccc(O)cc1` [echinatin-4-glucoside] came in with a solubility in data set [1] (setting [3]) of approximately 1000 µg/mL (≈ 2310 µM).
